Data on 20 compounds can be found in US5869460A, “Sulfated and phosphated saccharide derivatives, process for the preparation of the same and use thereof” (Sanwa Kaguku Kenkyusho Co., Ltd., priority 1995, dated 1999).

One experiment concerns L-selectin. The conditions noted are these: in vitro, plastic plate; BIOCHEM. BIOPHY. RES. COM. 190, 426 (1993); cited from earlier work.
Experiment [1] deals with lung injury model, lgG immunocomplex. The conditions noted are these: INT. IMMUNOL. 7, 1107 (1995); cited from earlier work.
Experiment [2] concerns lung injury model, activation of whole body complements by CVF. The conditions noted are these: INT. IMMUNOL. 7, 1107 (1995); cited from earlier work.
Experiment [3] has as its system lung damage model induced by cobra venom factor (CVF); bleeding. The experiment can be described thus: Anti-inflammatory action to lung damage model induced by CVF: index of bleeding (hemoglobin absorbance, 541 nm, in lung homogenate supernatant). Type of experiment: in vivo, Lewis rats. The conditions noted are these: for inhibition in vivo at 0.2 mg: Rattus norvegicus, iv, 0.5 h, read-out: Inhibition rate (%), index of bleeding. As to the method:
(§1) Anti-inflammatory action to lung damage model induced by CVF Compounds obtained by Examples and an exemplary known compound (sulfatide) were selected as Test Compounds to check an inflammatory action thereof to a lung damage model induced by cobra venom factor (CVF), in accordance with the method described by M. S. Mulligan et al ["J. IMMUNOL.", Vol.151, page 6410 (1993); and "INT. IMMUNOL.", Vol. 7, page 1107 (1995)].
(§2) Namely, the test compound was intravenously injected by an amount of 0.2 mg/rat to test animals (Lewis rats, age of 8 weeks, 5 animals in each group). After lapsed 5 minutes from administration, CVF (20U/2 ml/kg) was administered in a tail vein, and after 30 minutes, a laparotomy was carried out under nembutal anesthesia to perfuse the lung with phosphate-buffered saline (PBS, pH7.4) by injecting the same from right ventricle and to exenterate the lung. The extracted lung was homogenized with phosphate buffer (pH 7.4), centrifuged to collect a supernatant, and determined absorbance which was admitted as index of bleeding (It measures an amount of hemoglobin and thus detection wave-length was set to 541 nm).
(§3) Each inhibition rate (%) was calculated by
(§4) 100×[1-(value of test compound-value of negative control)/(value of positive control-value of negative control)].

The subject of experiment [4] is lung damage model induced by cobra venom factor (CVF); infiltration in neutrocyte (myeloperoxidase). The experiment can be described thus: Anti-inflammatory action to lung damage model induced by CVF: myeloperoxidase activity as index of infiltration in neutrocyte. The format is in vivo, Lewis rats. The conditions noted are these: for inhibition in vivo at 0.2 mg: Rattus norvegicus, iv, 0.5 h, read-out: Inhibition rate (%), myeloperoxidase activity as index of infiltration in neutrocyte. On the procedure:
as §1, §2
On the other hand, the precipitation obtained by centrifugation was sonicated in the presence of cetrimide and centrifuged to obtain a supernatant, an activity myeloperoxidase therein being measured as an index of infiltration in neutrocyte.
as §3, §4

As to `CCCCCCCCCCCCCCC(CCCCCCCCCCCCCC)CO[C@@H]1O[C@H](CO)[C@H](O)[C@H](OS(=O)(=O)O)[C@H]1O` [2-tetradesyl hexadesyl β-D-galactopyranoside 3-sulfate], in the experiment with L-selectin, the “binding specificity to L-selectin” value is recorded as “show a binding specificity to L-selectin”. The inflammation inhibition effect entry in experiment [1] and in experiment [2] was “shows inflammation inhibition effect” each time.
In the case of `CCCC(CCC)CO[C@@H]1O[C@H](CO)[C@H](O)[C@H](OS(=O)(=O)O)[C@H]1O[C@@H]1O[C@@H](C)[C@@H](O)[C@@H](OS(=O)(=O)O)[C@@H]1O` [Example 24-1, Disodium 2-propylpentyl O-α-L-fucopyranosyl-(1→2)-β-D-galactopyranoside 3,3'-disulfate], the values for the inhibition in vivo at 0.2 mg in experiment [3] and in experiment [4] were 54% and 47%, respectively.
Taken in the same sequence, the figures for `CCCC(CCC)CO[C@@H]1O[C@H](CO)[C@H](O)[C@H](OP(=O)(O)O)[C@H]1O[C@@H]1O[C@@H](C)[C@@H](O)[C@@H](OP(=O)(O)O)[C@@H]1O` [Example 24-2, tetrasodium 2-propylpentyl O-α-L-fucopyranosyl-(1→2)-β-D-galactopyranoside 3,3'-diphosphate] were 50% and 49%.
Taken in the same sequence, the figures for `CCCC(CCC)CO[C@@H]1O[C@H](CO)[C@H](O)[C@H](OP(=O)(O)O)[C@H]1O[C@@H]1O[C@@H](C)[C@@H](O)[C@@H](O)[C@@H]1O` [Example 23-2, disodium 2-propylpentyl O-α-L-fucopyranosyl-(1→2)-β-D-galactopyranoside 3-phosphate] were 51% and 49%.
Take Sulfatide [reference compound]: the “Inhibition rate (%), index of bleeding” value in experiment [3] (0.2 mg/rat i.v., 5 min before CVF (20U/2 ml/kg, tail vein), hemoglobin absorbance at 541 nm, Table 1) was determined as 53%. For the same compound, in experiment [4] (0.2 mg/rat i.v., 5 min before CVF (20U/2 ml/kg, tail vein), lung precipitation, Table 2), the “Inhibition rate (%), myeloperoxidase activity as index of infiltration in neutrocyte” value was 50%. In addition, the inflammation inhibition effect result in experiment [1] and in experiment [2] was “shows inflammation inhibition effect” each time.
With `CCCCCCCCCCCCCCC(CCCCCCCCCCCCCC)CO[C@@H]1O[C@H](CO)[C@@H](O[C@@H]2O[C@H](CO)[C@H](O)[C@H](OS(=O)(=O)O)[C@H]2O)[C@H](O)[C@H]1O` [2-tetradesyl hexadesyl O-β-D-galactopyranosyl-(1→4)-β-D-glucopyranoside 3'-sulfate], the “binding specificity to L-selectin” value in the experiment on L-selectin is reported as “show a binding specificity to L-selectin”.
On to `CCCCCCCCCCCCCCC(CCCCCCCCCCCCCC)CO[C@@H]1O[C@H](CO)[C@H](O)[C@H](OS(=O)(=O)O)[C@H]1O[C@@H]1O[C@@H](C)[C@@H](O)[C@@H](O)[C@@H]1O` [Example 27-1, Sodium 2-tetradecylhexadecyl O-α-L-fucopyranosyl-(1→2)-β-D-galactopyranoside 3-sulfate], for which the inhibition in vivo at 0.2 mg worked out at 65% in experiment [3] and 61% in experiment [4].
As to `CCCC(CCC)CO[C@@H]1O[C@H](COP(=O)(O)O)[C@H](OP(=O)(O)O)[C@H](OP(=O)(O)O)[C@H]1OP(=O)(O)O` [Example 13, Octasodium 2-propylpentyl β-D-galactopyranoside 2,3,4,6-tetranhosphate], the inhibition in vivo at 0.2 mg was 43% in experiment [3] and 46% in experiment [4].
Taken in the same sequence, the figures for `CCCCCCCCCCCCCCC(CCCCCCCCCCCCCC)CO[C@@H]1O[C@H](COS(=O)(=O)O)[C@@H](O[C@@H]2O[C@H](COS(=O)(=O)O)[C@H](O)[C@H](OS(=O)(=O)O)[C@H]2O)[C@H](O)[C@H]1O` [Example 11-2, trisodium 2-tetradecylhexadecyl O-β-D-galactopyranosyl-(1→4)-β-D-glucopyranoside 3',6',6-trisulfate] were 82% and 70%.
In the case of `CC(C)CO[C@@H]1O[C@H](CO)[C@H](O)[C@H](OS(=O)(=O)O)[C@H]1O` [Example 1-1, Sodium 2-methylpropyl β-D-galactopyranoside 3-sulfate], the inhibition in vivo at 0.2 mg in experiment [3] and in experiment [4] was 22% each time.
In the case of `CCCCCCCCCCCCCCC(CCCCCCCCCCCCCC)CO[C@@H]1O[C@H](CO)[C@H](O)[C@H](OP(=O)(O)O)[C@H]1O[C@@H]1O[C@@H](C)[C@@H](O)[C@@H](OP(=O)(O)O)[C@@H]1O` [Example 28-2, tetrasodium 2-tetradecylhexadecyl O-α-L-fucopyranosyl-(1→2)-β-D-galactopyranoside 3,3'-diphosphate], the inhibition in vivo at 0.2 mg in experiment [3] came out at 63%; in experiment [4], 55%.
As to `CCCC(CCC)CO[C@@H]1O[C@H](CO)[C@H](O)[C@H](OP(=O)(O)O)[C@H]1O` [Example 18, Disodium 2-propylpentyl β-D-galactopyranoside 3-phosphate], the results for the inhibition in vivo at 0.2 mg in experiment [3] and in experiment [4] were 50% and 51%, respectively.
Take `CC(C)CO[C@@H]1O[C@H](COS(=O)(=O)O)[C@H](O)[C@H](O)[C@H]1O` [Example 2, Sodium 2-methylpropyl β-D-galactopyranoside 6-sulfate]: the inhibition in vivo at 0.2 mg in experiment [3] came to 36%; in experiment [4] it was 32%.
In the case of `CCCCCCCCCCCCCCC(CCCCCCCCCCCCCC)CO[C@@H]1O[C@H](CO)[C@H](OP(=O)(O)O)[C@H](OP(=O)(O)O)[C@H]1O` [Example 17, Tetrasodium 2-tetradecylhexadecyl β-D-galactopyranoside 3,4-dinhosphate], the inhibition in vivo at 0.2 mg stood at 74% in experiment [3] and 73% in experiment [4].
Taken in the same sequence, the figures for `CCCCCCCCCCCCCCC(CCCCCCCCCCCCCC)CO[C@@H]1O[C@H](COS(=O)(=O)O)[C@H](O)[C@H](OS(=O)(=O)O)[C@H]1O[C@@H]1O[C@@H](C)[C@@H](O)[C@@H](OS(=O)(=O)O)[C@@H]1O` [Example 30, Trisodium 2-tetradecylhexadecyl O-α-L-fucopyranosyl-(1→2)-β-D-galactopyranoside 3,3',6-trisulfate] were 70% and 62%.
Taken in the same sequence, the figures for `CC(C)CO[C@@H]1O[C@H](COS(=O)(=O)O)[C@H](OS(=O)(=O)O)[C@H](OS(=O)(=O)O)[C@H]1O` [Example 3-1, trisodium 2-methylpropyl β-D-galactopyranoside 3,4,6-trisulfate] were 27% and 36%.
For `CCCC(CCC)CO[C@@H]1O[C@H](CO)[C@@H](O)[C@H](OP(=O)(O)O)[C@H]1OP(=O)(O)O` [Example 19, Tetrasodium 2-propylpentyl β-D-glucopyranoside 2,3-diphosphate] the same measures were 43% and 39%.
Consider `CCCC(CCC)CO[C@@H]1O[C@H](CO)[C@H](OP(=O)(O)O)[C@H](OP(=O)(O)O)[C@H]1O` [Example 16, Tetrasodium 2-propylpentyl β-D-galactopyranoside 3,4-diphosphate], for which the values for the inhibition in vivo at 0.2 mg in experiment [3] and in experiment [4] were 75% and 70%, respectively.
For `CC(C)CO[C@@H]1O[C@H](CO)[C@@H](O[C@@H]2O[C@H](CO)[C@H](O)[C@H](OS(=O)(=O)O)[C@H]2O)[C@H](O)[C@H]1O` [Example 9-1, sodium 2-methylpropyl O-β-D-galactopyranosyl-(1→4)-β-D-glucopyranoside 3'-sulfate] the same measures were 84% and 58%.
For `CCCC(CCC)CO[C@@H]1O[C@H](CO)[C@H](O)[C@H](OS(=O)(=O)O)[C@H]1O[C@@H]1O[C@@H](C)[C@@H](O)[C@@H](O)[C@@H]1O` [Example 23-1, Sodium 2-propylpentyl O-α-L-fucopyranosyl-(1→2)-β-D-galactopyranoside 3-sulfate] the same measures were 53% and 51%.
